These results are taken from patent publication US4015974A, “Amido phosphorothiolates” (priority 1972, dated 1977).

What all share (format): in vivo
Series [1] concerns barnyard grass (Echinochloa crus-galli). The series can be described thus: Water application, herbicidal effect on barnyard grass (Table 2). Also noted: key: 0: not damaged; 5: completely killed. The conditions noted are these: 25 days, score 0-5. The procedure, abridged: (§1)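 Flooded paddy-soil pots with 3-leaf-stage transplanted rice and sown barnyard grass; wettable-powder compounds applied to soil under water. Herbicidal effect and rice phytotoxicity, also on spontaneously germinated broad-leaved weeds, scored 0–5 at 25 days after application.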

For the next series, the system named is rice. The series can be described thus: Water application, phytotoxicity on rice (Table 2). Also on record: key: 0: no effect; 1: very slightly affected; 2: slightly affected; 3: moderately affected; 4: considerably affected; 5: completely killed. The conditions noted are these: 25 days, score 0-5. Put shortly:
as §1

Series [2] concerns common purslane (Portulaca oleracea). The series can be described thus: Pre-emergence application, herbicidal effect on common purslane (Table 1). Also noted: key: 0: not damaged; 5: completely killed. The following applies: 20 days after application, score 0-5. Put shortly:
(§2)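 Pre-emergence soil treatment: seeds sown in pots of about 10 cm and covered with soil, then compounds applied as wettable powder diluted in water. Plants grown in a greenhouse; damage scored 20 days after application from 0 (not damaged) to 5 (completely killed).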

Series [3] has as its system barnyard grass (Echinochloa crus-galli). The series can be described thus: Water application, herbicidal effect on barnyard grass (Table 2). The conditions noted are these: 25 days, score 0-5. Also on record: key: 0: no effect; 1: very slightly affected; 2: slightly affected; 3: moderately affected; 4: considerably affected; 5: completely killed. The source says: Wagner pots of 14 cm. in diameter, which had been packed with 1.5 kg. of paddy field soil, were brought into the state of paddy fields. To the pots were transplanted rice seedlings at the 3-leave stage. Further, seeds of barnyard grass (Echinochloa crus-galli) were sowed in the pots and required amounts of test compounds were applied to the soil under water lodged condition. 25 days after application, the degrees of herbicidal activity and phytotoxity were investigated on above-mentioned plants which had been transplanted and sowed, and on broad-leaved weeds, e.g., monochoria (Monochoria viaginalis Presl.), false pimpernel (Linderna pyxidaria) and toothcup (Rotala indica Koehue), which had been spontaneously germinated. The test compounds were used in the form of wettable powder. The herbicidal effects and the phytotoxity were evaluated as follows by the numerals ranging from 0 to 5.

Series [4] relates to broad-leaved weeds, e.g., monochoria, false pimpernel and toothcup. The series can be described thus: Water application, herbicidal effect on broad-leaved weeds (Table 2). The following applies: 25 days, score 0-5. Also on record: key: 0: not damaged; 5: completely killed. The procedure, abridged:
as §1

Another series has as its system radish. The series can be described thus: Pre-emergence application, herbicidal effect on radish (Table 1). The conditions noted are these: 20 days after application, score 0-5. Also on record: key: 0: not damaged; 5: completely killed. Put shortly:
as §2

Series [5] has as its system redroot pigweed (Amaranthus retroflexus). The series can be described thus: Pre-emergence application, herbicidal effect on redroot pigweed (Table 1). Also on record: key: 0: not damaged; 5: completely killed. The conditions noted are these: 20 days after application, score 0-5. Put shortly:
as §2

In series [6] the test system is barnyard grass (Echinochloa crus-galli). The series can be described thus: Pre-emergence application, herbicidal effect on barnyard grass (Table 1). Also on record: key: 0: not damaged; 5: completely killed. The conditions noted are these: 20 days after application, score 0-5. Put shortly:
as §2

In series [7] the test system is common lambsquarter (Chenopodium album). The series can be described thus: Pre-emergence application, herbicidal effect on common lambsquarter (Table 1). Also on record: key: 0: not damaged; 5: completely killed. The following applies: 20 days after application, score 0-5. The procedure, abridged:
as §2

Series [8] deals with large crabgrass (Digitaria sanguinalis). The series can be described thus: Pre-emergence application, herbicidal effect on large crabgrass (Table 1). Also noted: key: 0: not damaged; 5: completely killed. The conditions noted are these: 20 days after application, score 0-5. Put shortly:
as §2

Series [9] relates to broad-leaved weeds, e.g., monochoria, false pimpernel and toothcup. The series can be described thus: Water application, herbicidal effect on broad-leaved weeds (Table 2). Also noted: key: 0: no effect; 1: very slightly affected; 2: slightly affected; 3: moderately affected; 4: considerably affected; 5: completely killed. The conditions noted are these: 25 days, score 0-5. The procedure, abridged: as §1

Take `CCOP(=O)(SCCc1ccccc1)SCC(=O)N1CCCCC1C` (stereo not drawn) [Compound 63]: the “Herbicidal effects, barnyard grass” value in [1] (20 g/a) is listed as 5; in series [1] (40 g/a) it was 5; in series [3] (10 g/a), 4. The Phytotoxicity on rice in the series with rice (10 g/a), with rice (20 g/a) and in the series on rice (40 g/a) was 0 throughout. The entries for the “Herbicidal effect, common purslane” value in series [2] (10 g./a.), in series [2] (20 g./a.) and in series [2] (40 g./a.) were 4, 5 and 5, respectively. In addition, the “Herbicidal effects, broad-leaved weeds” value in series [4] (10 g/a), in series [4] (20 g/a) and in series [4] (40 g/a) was 5 each time. The “Herbicidal effect, radish” value with radish (10 g./a.), in the series with radish (20 g./a.) and in the series on radish (40 g./a.) was 0 in each case. Also, the “Herbicidal effect, redroot pigweed” value amounted to 4 in series [5] (10 g./a.), 5 in series [5] (20 g./a.) and 5 in series [5] (40 g./a.). Further, the “Herbicidal effect, barnyard grass” value in series [6] (10 g./a.), in series [6] (20 g./a.) and in series [6] (40 g./a.) was 5 each time. In addition, the “Herbicidal effect, common lambsquarter” value amounted to 4 in [7] (10 g./a.), 4 in [7] (20 g./a.) and 5 in [7] (40 g./a.). The “Herbicidal effect, large crabgrass” value is 4 in series [8] (10 g./a.), 5 in [8] (20 g./a.) and 5 in series [8] (40 g./a.).

Regarding `CCOP(=O)(SCC(=O)N1CCCCC1C)SCC(C)c1ccccc1` (stereo not drawn) [Compound 65], the “Herbicidal effects, barnyard grass” value worked out at 5 in [1] (20 g/a), 5 in series [1] (40 g/a) and 4 in series [3] (10 g/a). Also, the Phytotoxicity on rice in the series on rice (10 g/a), in the series on rice (20 g/a) and in the series on rice (40 g/a) was 0 each time. The “Herbicidal effect, common purslane” value turned out to be 4 in [2] (10 g./a.), 4 in series [2] (20 g./a.) and 5 in [2] (40 g./a.). The “Herbicidal effects, broad-leaved weeds” value in [4] (10 g/a), in series [4] (20 g/a) and in series [4] (40 g/a) was 5 each time. The “Herbicidal effect, radish” value with radish (10 g./a.), in the series with radish (20 g./a.) and in the series with radish (40 g./a.) was 0 throughout. Further, the “Herbicidal effect, redroot pigweed” value stood at 4 in series [5] (10 g./a.), 4 in series [5] (20 g./a.) and 5 in series [5] (40 g./a.). In addition, the “Herbicidal effect, barnyard grass” value in series [6] (10 g./a.), in series [6] (20 g./a.) and in series [6] (40 g./a.) was 5 each time. Further, the entries for the “Herbicidal effect, common lambsquarter” value in [7] (10 g./a.), in series [7] (20 g./a.) and in series [7] (40 g./a.) were 4, 4 and 5, respectively. In addition, the “Herbicidal effect, large crabgrass” value in [8] (10 g./a.), in [8] (20 g./a.) and in series [8] (40 g./a.) was 5 each time.

Turning to `CCOP(=O)(SCCCC(C)C)SCC(=O)N1CCCCC1CC` (stereo not drawn) [Compound 80], the “Herbicidal effects, barnyard grass” value is given as 5 in series [1] (20 g/a), 5 in series [1] (40 g/a) and 4 in series [3] (10 g/a). Further, the Phytotoxicity on rice with rice (10 g/a) was 0; with rice (20 g/a), 0; in the series on rice (40 g/a) it was 2. The “Herbicidal effect, common purslane” value in [2] (10 g./a.) stood at 3; in series [2] (20 g./a.), 4; in series [2] (40 g./a.) it was 5. Besides, the “Herbicidal effects, broad-leaved weeds” value in series [4] (10 g/a), in series [4] (20 g/a) and in series [4] (40 g/a) was 5 throughout. Moreover, the “Herbicidal effect, radish” value in the series on radish (10 g./a.), with radish (20 g./a.) and with radish (40 g./a.) was 0 each time. Further, the entries for the “Herbicidal effect, redroot pigweed” value in [5] (10 g./a.), in series [5] (20 g./a.) and in [5] (40 g./a.) were 3, 4 and 5, respectively. For the same molecule, the “Herbicidal effect, barnyard grass” value worked out at 4 in series [6] (10 g./a.), 5 in [6] (20 g./a.) and 5 in [6] (40 g./a.). The “Herbicidal effect, common lambsquarter” value in series [7] (10 g./a.) came to 3; in series [7] (20 g./a.), 4; in series [7] (40 g./a.), 5. For the same molecule, the “Herbicidal effect, large crabgrass” value in series [8] (10 g./a.), in [8] (20 g./a.) and in series [8] (40 g./a.) was 5 each time.

For `C=CCSP(=O)(OCCC)SCC(=O)N1CCCCC1CC` (stereo not drawn) [Compound 91], the figures for the “Herbicidal effects, barnyard grass” value in series [1] (20 g/a), in series [1] (40 g/a) and in series [3] (10 g/a) were 5, 5 and 4, respectively. In addition, the Phytotoxicity on rice in the series on rice (10 g/a), in the series on rice (20 g/a) and in the series on rice (40 g/a) was 0 in each case. The “Herbicidal effect, common purslane” value is given as 3 in series [2] (10 g./a.), 4 in series [2] (20 g./a.) and 4 in series [2] (40 g./a.). In addition, the “Herbicidal effects, broad-leaved weeds” value in [4] (10 g/a), in [4] (20 g/a) and in [4] (40 g/a) was 5 each time. Moreover, the “Herbicidal effect, radish” value with radish (10 g./a.), with radish (20 g./a.) and in the series on radish (40 g./a.) was 0 in each case. In addition, the entries for the “Herbicidal effect, redroot pigweed” value in series [5] (10 g./a.), in [5] (20 g./a.) and in [5] (40 g./a.) were 3, 3 and 4, respectively. The entries for the “Herbicidal effect, barnyard grass” value in series [6] (10 g./a.), in series [6] (20 g./a.) and in series [6] (40 g./a.) were 4, 5 and 5, respectively. In addition, the “Herbicidal effect, common lambsquarter” value in series [7] (10 g./a.) worked out at 3; in series [7] (20 g./a.), 3; in series [7] (40 g./a.), 4. In addition, the “Herbicidal effect, large crabgrass” value in series [8] (10 g./a.), in [8] (20 g./a.) and in series [8] (40 g./a.) was 5 in each case.

For the molecule `Oc1c(Cl)c(Cl)c(Cl)c(Cl)c1Cl` [PCP, reference compound], the “Herbicidal effects, barnyard grass” value is 5 in [1] (100 g/a) and 4 in series [3] (50 g/a). For the same molecule, the Phytotoxicity on rice in the series with rice (50 g/a) is 2; in the series on rice (100 g/a), 3. Moreover, the figures for the “Herbicidal effect, common purslane” value in [2] (50 g./a.) and in [2] (100 g./a.) were 2 and 4, respectively. Moreover, the “Herbicidal effects, broad-leaved weeds” value in series [4] (50 g/a) and in [4] (100 g/a) was 5 throughout. Further, the “Herbicidal effect, radish” value with radish (50 g./a.) is 1; in the series on radish (100 g./a.), 4. Besides, the “Herbicidal effect, redroot pigweed” value in [5] (50 g./a.) is reported as 2; in [5] (100 g./a.) it was 4. Also, the “Herbicidal effect, barnyard grass” value stood at 2 in series [6] (50 g./a.) and 3 in series [6] (100 g./a.). For the same molecule, the “Herbicidal effect, common lambsquarter” value is on record as 2 in [7] (50 g./a.) and 4 in series [7] (100 g./a.). In addition, the “Herbicidal effect, large crabgrass” value in [8] (50 g./a.) amounted to 2; in [8] (100 g./a.), 4.

As for `COP(=S)(NC(C)C)Oc1ccc(Cl)cc1Cl` (stereo not drawn) [Zytron, reference compound], the entries for the “Herbicidal effects, broad-leaved weeds” value in series [9] (20 g/a) and in [9] (40 g/a) were 2 and 3, respectively. Also, the Phytotoxicity on rice with rice (20 g/a) and with rice (40 g/a) was 0 throughout. Also, the entries for the “Herbicidal effect, common purslane” value in series [2] (20 g./a.) and in series [2] (40 g./a.) were 1 and 2, respectively. Further, the “Herbicidal effects, barnyard grass” value in series [3] (20 g/a) turned out to be 1; in [3] (40 g/a) it was 3. For the same molecule, the “Herbicidal effect, radish” value in the series with radish (20 g./a.) and in the series on radish (40 g./a.) was 0 in each case. Moreover, the “Herbicidal effect, redroot pigweed” value in [5] (20 g./a.) came out at 0; in series [5] (40 g./a.), 1. Further, the results for the “Herbicidal effect, barnyard grass” value in series [6] (20 g./a.) and in [6] (40 g./a.) were 3 and 4, respectively. The “Herbicidal effect, common lambsquarter” value is 0 in [7] (20 g./a.) and 2 in series [7] (40 g./a.). Also, the results for the “Herbicidal effect, large crabgrass” value in series [8] (20 g./a.) and in series [8] (40 g./a.) were 1 and 3, respectively.
